Experimental data reported in patent publication US9969742B2, “Imidazotriazinone compounds” (Ironwood Pharmaceuticals, Inc., priority 2012, dated 2018).
pIC50: −log10 of the molar value. Where two headings read alike, the source gives them in different places.

Experiments:
Type in all cases: biochemical
[1] = biological target: T1, PDE9A2 (Homo sapiens, UniProt O76083); assay: Phosphodiesterase enzyme screening assay, PDE9A2
T1 construct: purchased Reaction Biology Corporation, Malvern, Pa
Procedure, shortened: (§1)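 Enzyme activity is measured as conversion of fluorescent cGMP (4.0 μM) to 5′-GMP after 1 h at R.T. in pH 7.5 HEPES/MgCl2/DTT buffer. Product is separated from substrate by microfluidic mobility shift, and inhibition is derived by comparison with control wells.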

[2] = biological target: T2, PDE1B (Homo sapiens, UniProt Q01064); assay: Phosphodiesterase enzyme screening assay, PDE1B
T2 construct: purchased Reaction Biology Corporation, Malvern, Pa
Procedure, shortened: as §1

[3] = biological target: T3, PDE1A (Homo sapiens, UniProt P54750); assay: Phosphodiesterase enzyme screening assay, PDE1A
T3 construct: purchased Reaction Biology Corporation, Malvern, Pa
Procedure, shortened: as §1

[4] = IC50 band, 4.0 μM cGMP substrate, 1 hour at R.T.
[5] = ratio of IC50 values PDE1B vs PDE9A2, value greater than 1 indicates greater selectivity for PDE9A2
[6] = ratio of IC50 values PDE1A vs PDE9A2, value greater than 1 indicates greater selectivity for PDE9A2
[7] = ratio of IC50 values, PDE1B versus PDE9A2, value greater than 1 indicates greater selectivity for PDE9A2
[8] = ratio of IC50 values, PDE1A versus PDE9A2, value greater than 1 indicates greater selectivity for PDE9A2
[9] = Table 1, 10 concentrations, 4.0 μM cGMP substrate, 1 hour at R.T., read-out: Band (PDE9A2 IC50)
[10] = Table 1, ratio of IC50 values, value greater than 1 indicates greater selectivity for PDE9A2
[11] = 4.0 μM cGMP substrate, 1 hour at R.T., read-out: Band (PDE9A2 IC50)
[12] = ratio of IC50 values, value greater than 1 indicates greater selectivity for PDE9A2

T3 sequence (P54750 whole entry): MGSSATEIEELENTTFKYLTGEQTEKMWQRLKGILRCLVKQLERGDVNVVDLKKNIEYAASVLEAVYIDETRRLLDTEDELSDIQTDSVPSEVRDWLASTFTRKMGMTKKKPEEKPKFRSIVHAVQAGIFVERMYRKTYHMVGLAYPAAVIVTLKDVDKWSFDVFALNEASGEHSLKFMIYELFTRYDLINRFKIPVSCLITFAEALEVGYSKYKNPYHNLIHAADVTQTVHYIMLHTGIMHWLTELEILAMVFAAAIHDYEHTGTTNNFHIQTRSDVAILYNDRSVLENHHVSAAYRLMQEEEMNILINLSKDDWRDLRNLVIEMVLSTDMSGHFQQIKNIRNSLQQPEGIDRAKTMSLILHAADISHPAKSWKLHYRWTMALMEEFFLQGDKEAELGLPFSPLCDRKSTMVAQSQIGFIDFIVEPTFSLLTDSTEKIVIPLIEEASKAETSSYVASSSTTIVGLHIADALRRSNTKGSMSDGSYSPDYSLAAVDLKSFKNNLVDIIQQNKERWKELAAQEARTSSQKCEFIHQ
T2 sequence (Q01064 whole entry): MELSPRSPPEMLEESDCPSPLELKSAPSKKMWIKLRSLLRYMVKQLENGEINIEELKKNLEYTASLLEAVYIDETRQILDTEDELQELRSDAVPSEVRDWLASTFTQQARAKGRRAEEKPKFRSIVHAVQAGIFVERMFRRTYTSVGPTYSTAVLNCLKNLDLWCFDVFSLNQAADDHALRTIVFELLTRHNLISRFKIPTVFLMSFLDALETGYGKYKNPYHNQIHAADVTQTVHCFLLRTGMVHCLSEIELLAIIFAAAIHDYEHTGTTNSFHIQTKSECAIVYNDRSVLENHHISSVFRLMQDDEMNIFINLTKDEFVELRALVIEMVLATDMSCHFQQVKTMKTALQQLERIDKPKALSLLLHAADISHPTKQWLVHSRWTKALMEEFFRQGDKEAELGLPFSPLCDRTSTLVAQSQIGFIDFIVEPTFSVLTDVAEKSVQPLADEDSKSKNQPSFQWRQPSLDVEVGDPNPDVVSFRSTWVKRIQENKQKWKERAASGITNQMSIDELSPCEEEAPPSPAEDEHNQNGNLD
T1 sequence (O76083 1-533 isoform O76083-2): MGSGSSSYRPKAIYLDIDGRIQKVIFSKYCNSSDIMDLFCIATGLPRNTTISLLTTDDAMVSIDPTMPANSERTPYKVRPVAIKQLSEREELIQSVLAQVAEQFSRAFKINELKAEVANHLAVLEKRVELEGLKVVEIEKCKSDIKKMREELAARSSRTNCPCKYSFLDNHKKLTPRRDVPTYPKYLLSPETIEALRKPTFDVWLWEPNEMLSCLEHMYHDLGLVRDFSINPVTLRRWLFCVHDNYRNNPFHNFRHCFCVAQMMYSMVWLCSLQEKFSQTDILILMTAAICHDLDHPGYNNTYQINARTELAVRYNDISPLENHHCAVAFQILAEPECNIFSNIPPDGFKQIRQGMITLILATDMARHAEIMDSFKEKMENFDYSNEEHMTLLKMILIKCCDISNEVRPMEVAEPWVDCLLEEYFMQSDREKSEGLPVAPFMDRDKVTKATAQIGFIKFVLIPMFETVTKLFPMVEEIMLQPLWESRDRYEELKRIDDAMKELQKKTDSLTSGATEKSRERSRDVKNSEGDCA

Cc1cc(F)ccc1-c1ncc2c(=O)[nH]c(C3CN(Cc4ccc(Cl)cc4)CC3C)nn12 (single isomer, unassigned; (+)) [(+)-2-((3,4-trans)-1-(4-chlorobenzyl)-4-methylpyrrolidin-3-yl)-7-(4-fluoro-2-methylphenyl)imidazo[5,1-f][1,2,4]triazin-4(3H)-one]
pIC50 [1, 4]: > 6.00 | PDE1B selectivity (versus PDE9A2) [2, 5]: 1106 | PDE1A selectivity (versus PDE9A2) [3, 6]: 468

Cc1ccccc1-c1ncc2c(=O)[nH]c(C3CN(Cc4ccc(Cl)cc4)CC3C)nn12 (single isomer, unassigned; (+)) [(+)-2-((3,4-trans)-1-(4-chlorobenzyl)-4-methylpyrrolidin-3-yl)-7-(o-tolyl)imidazo[5,1-f][1,2,4]triazin-4(3H)-one]
pIC50 ([1]; read-out: Band (PDE9A2 IC50)): > 6.00 | PDE1B selectivity (versus PDE9A2) [2, 7]: 109 | PDE1A selectivity (versus PDE9A2) [3, 8]: 55

CC1CN(Cc2ccc(C3CC3)cc2)CC1c1nn2c(C3CCOCC3)ncc2c(=O)[nH]1 (single isomer, unassigned; (+)) [(+)-2-((3,4-trans)-1-(4-cyclopropylbenzyl)-4-methylpyrrolidin-3-yl)-7-(tetrahydro-2H-pyran-4-yl)imidazo[5,1-f][1,2,4]triazin-4(3H)-one]
pIC50 [1, 9]: > 6.00 | PDE1B selectivity (versus PDE9A2) [2, 10]: 605 | PDE1A selectivity (versus PDE9A2) [3, 10]: 260

CC1CN(Cc2ccc(F)c(C(F)(F)F)c2)CC1c1nn2c(C3CCOCC3)ncc2c(=O)[nH]1 (single isomer, unassigned; (+)) [(+)-2-((3,4-trans)-1-(4-fluoro-3-(trifluoromethyl)benzyl)-4-methylpyrrolidin-3-yl)-7-(tetrahydro-2H-pyran-4-yl)imidazo[5,1-f][1,2,4]triazin-4(3H)-one]
pIC50 [1, 9]: > 6.00 | PDE1B selectivity (versus PDE9A2) [2, 10]: 1097 | PDE1A selectivity (versus PDE9A2) [3, 10]: 1687

CC1CN(Cc2ccc(F)cc2)CC1c1nn2c(-c3ccccc3F)ncc2c(=O)[nH]1 (single isomer, unassigned; (+)) [(+)-2-((3,4-trans)-1-(4-fluorobenzyl)-4-methylpyrrolidin-3-yl)-7-(2-fluorophenyl)imidazo[5,1-f][1,2,4]triazin-4(3H)-one]
pIC50 [1, 11]: > 6.00 | PDE1B selectivity (versus PDE9A2) ([2]; ratio of IC50 values PDE1B / PDE9A2, value greater than 1 indicates greater selectivity for PDE9A2): 165 | PDE1A selectivity (versus PDE9A2) ([3]; ratio of IC50 values PDE1A / PDE9A2, value greater than 1 indicates greater selectivity for PDE9A2): 62

CC1CN(Cc2ccc(F)cc2)CC1c1nn2c(-c3cccc(F)c3)ncc2c(=O)[nH]1 (single isomer, unassigned; (+)) [(+)-2-((3,4-trans)-1-(4-fluorobenzyl)-4-methylpyrrolidin-3-yl)-7-(3-fluorophenyl)imidazo[5,1-f][1,2,4]triazin-4(3H)-one]
pIC50 ([1]; read-out: Band (PDE9A2 IC50)): > 6.00 | PDE1B selectivity (versus PDE9A2) [2, 7]: 57 | PDE1A selectivity (versus PDE9A2) [3, 8]: 42

Cc1ccccc1-c1ncc2c(=O)[nH]c(C3CN(Cc4ccc(F)cc4)CC3C)nn12 (single isomer, unassigned; (+)) [(+)-2-((3,4-trans)-1-(4-fluorobenzyl)-4-methylpyrrolidin-3-yl)-7-(o-tolyl)imidazo[5,1-f][1,2,4]triazin-4(3H)-one]
pIC50 ([1]; read-out: Band (PDE9A2 IC50)): > 6.00 | PDE1B selectivity (versus PDE9A2) [2, 7]: 744 | PDE1A selectivity (versus PDE9A2) [3, 8]: 963

CCC(CC)c1ncc2c(=O)[nH]c(C3CN(Cc4ccc(F)cc4)CC3C)nn12 (single isomer, unassigned; (+)) [(+)-2-((3,4-trans)-1-(4-fluorobenzyl)-4-methylpyrrolidin-3-yl)-7-(pentan-3-yl)imidazo[5,1-f][1,2,4]triazin-4(3H)-one]
pIC50 ([1]; read-out: Band (PDE9A2 IC50)): > 6.00 | PDE1B selectivity (versus PDE9A2) [2, 7]: 27 | PDE1A selectivity (versus PDE9A2) [3, 8]: 70

CC1CN(Cc2ccc(F)cc2)CC1c1nn2c(C3CCOCC3)ncc2c(=O)[nH]1 (single isomer, unassigned; (+)) [(+)-2-((3,4-trans)-1-(4-fluorobenzyl)-4-methylpyrrolidin-3-yl)-7-(tetrahydro-2H-pyran-4-yl)imidazo[5,1-f][1,2,4]triazin-4(3H)-one]
pIC50 [1, 9]: > 6.00 | PDE1B selectivity (versus PDE9A2) [2, 10]: 714 | PDE1A selectivity (versus PDE9A2) [3, 10]: 664

CC1CN(Cc2ccc(F)cc2)CC1c1nn2c(-c3ccccc3)ncc2c(=O)[nH]1 (single isomer, unassigned; (+)) [(+)-2-((3,4-trans)-1-(4-fluorobenzyl)-4-methylpyrrolidin-3-yl)-7-phenylimidazo[5,1-f][1,2,4]triazin-4(3H)-one]
pIC50 ([1]; read-out: Band (PDE9A2 IC50)): > 6.00 | PDE1B selectivity (versus PDE9A2) [2, 7]: 7 | PDE1A selectivity (versus PDE9A2) [3, 8]: 3

CC1CN(Cc2cc(Cl)ccc2F)CC1c1nn2c(C3CCOCC3)ncc2c(=O)[nH]1 (single isomer, unassigned; (+)) [(+)-2-((3,4-trans)-1-(5-chloro-2-fluorobenzyl)-4-methylpyrrolidin-3-yl)-7-(tetrahydro-2H-pyran-4-yl)imidazo[5,1-f][1,2,4]triazin-4(3H)-one]
pIC50 [1, 11]: > 6.00 | PDE1B selectivity (versus PDE9A2) ([2]; ratio of IC50 values PDE1B / PDE9A2, value greater than 1 = greater selectivity for PDE9A2): 16 | PDE1A selectivity (versus PDE9A2) ([3]; ratio of IC50 values PDE1A / PDE9A2, value greater than 1 = greater selectivity for PDE9A2): 15

CC1CN(Cc2ncon2)CC1c1nn2c(C3CCOCC3)ncc2c(=O)[nH]1 (single isomer, unassigned; (+)) [(+)-2-((3,4-trans)-1-((1,2,4-oxadiazol-3-yl)methyl)-4-methylpyrrolidin-3-yl)-7-(tetrahydro-2H-pyran-4-yl)imidazo[5,1-f][1,2,4]triazin-4(3H)-one]
pIC50 ([1]; read-out: Band (PDE9A2 IC50)): > 6.00 | PDE1B selectivity (versus PDE9A2) [2, 12]: 63 | PDE1A selectivity (versus PDE9A2) [3, 12]: 35

CC1CN(Cc2ncno2)CC1c1nn2c(C3CCOCC3)ncc2c(=O)[nH]1 (single isomer, unassigned; (+)) [(+)-2-((3,4-trans)-1-((1,2,4-oxadiazol-5-yl)methyl)-4-methylpyrrolidin-3-yl)-7-(tetrahydro-2H-pyran-4-yl)imidazo[5,1-f][1,2,4]triazin-4(3H)-one]
pIC50 ([1]; read-out: Band (PDE9A2 IC50)): > 6.00 | PDE1B selectivity (versus PDE9A2) [2, 12]: 1528 | PDE1A selectivity (versus PDE9A2) [3, 12]: 650

Cc1cc(CN2CC(C)C(c3nn4c(C5CCOCC5)ncc4c(=O)[nH]3)C2)n(C)n1 (single isomer, unassigned; (+)) [(+)-2-((3,4-trans)-1-((1,3-dimethyl-1H-pyrazol-5-yl)methyl)-4-methylpyrrolidin-3-yl)-7-(tetrahydro-2H-pyran-4-yl)imidazo[5,1-f][1,2,4]triazin-4(3H)-one]
pIC50 [1, 9]: > 6.00 | PDE1B selectivity (versus PDE9A2) [2, 10]: 670 | PDE1A selectivity (versus PDE9A2) [3, 10]: 487

CC1CN(Cc2nc3ccccc3[nH]2)CC1c1nn2c(C3CCC(F)(F)CC3)ncc2c(=O)[nH]1 (single isomer, unassigned; (+)) [(+)-2-((3,4-trans)-1-((1H-benzo[d]imidazol-2-yl)methyl)-4-methylpyrrolidin-3-yl)-7-(4,4-difluorocyclohexyl)imidazo[5,1-f][1,2,4]triazin-4(3H)-one]
pIC50 [1, 4]: > 6.00 | PDE1B selectivity (versus PDE9A2) [2, 5]: 250 | PDE1A selectivity (versus PDE9A2) [3, 6]: 90

Cc1cc(F)ccc1-c1ncc2c(=O)[nH]c(C3CN(Cc4nc5ccccc5[nH]4)CC3C)nn12 (single isomer, unassigned; (+)) [(+)-2-((3,4-trans)-1-((1H-benzo[d]imidazol-2-yl)methyl)-4-methylpyrrolidin-3-yl)-7-(4-fluoro-2-methylphenyl)imidazo[5,1-f][1,2,4]triazin-4(3H)-one]
pIC50 [1, 4]: > 6.00 | PDE1B selectivity (versus PDE9A2) [2, 5]: 2500 | PDE1A selectivity (versus PDE9A2) [3, 6]: 1438

Cc1ccc(F)cc1-c1ncc2c(=O)[nH]c(C3CN(Cc4nc5ccccc5[nH]4)CC3C)nn12 (single isomer, unassigned; (+)) [(+)-2-((3,4-trans)-1-((1H-benzo[d]imidazol-2-yl)methyl)-4-methylpyrrolidin-3-yl)-7-(5-fluoro-2-methylphenyl)imidazo[5,1-f][1,2,4]triazin-4(3H)-one]
pIC50 [1, 4]: > 6.00 | PDE1B selectivity (versus PDE9A2) [2, 5]: 130 | PDE1A selectivity (versus PDE9A2) [3, 6]: 89

Cc1ccccc1-c1ncc2c(=O)[nH]c(C3CN(Cc4nc5ccccc5[nH]4)CC3C)nn12 (single isomer, unassigned; (+)) [(+)-2-((3,4-trans)-1-((1H-benzo[d]imidazol-2-yl)methyl)-4-methylpyrrolidin-3-yl)-7-(o-tolyl)imidazo[5,1-f][1,2,4]triazin-4(3H)-one]
pIC50 ([1]; read-out: Band (PDE9A2 IC50)): > 6.00 | PDE1B selectivity (versus PDE9A2) [2, 7]: 2990 | PDE1A selectivity (versus PDE9A2) [3, 8]: 1740

CCc1ncc(CN2CC(C)C(c3nn4c(C5CCOCC5)ncc4c(=O)[nH]3)C2)cn1 (single isomer, unassigned; (+)) [(+)-2-((3,4-trans)-1-((2-ethylpyrimidin-5-yl)methyl)-4-methylpyrrolidin-3-yl)-7-(tetrahydro-2H-pyran-4-yl)imidazo[5,1-f][1,2,4]triazin-4(3H)-one]
pIC50 [1, 9]: > 6.00 | PDE1B selectivity (versus PDE9A2) [2, 10]: 1920 | PDE1A selectivity (versus PDE9A2) [3, 10]: 855
